The NIST ThermoML archive (doi:10.1016/j.jct.2009.07.021)
Where “and” joins values, the source holds several entries; their conditions need not be identical. Identical values can stand only once. Numbers after ± are expanded uncertainties.

Tests used:
[1] = Crystal, Calculated from knudsen effusion weight loss
[2] = molar enthalpy of transition or fusion; settings: 298.15 K; Crystal; Clausius-Clapeyron Eq with Heat Capacity

CC(=O)c1cc(-c2ccccc2)sc1C [3-acetyl-2-methyl-5-phenylthiophene]
[1]
Settings | vapor or sublimation pressure
321.12 K | 6.03e-05 ± 3e-06 kPa and 6.33e-05 ± 3.2e-06 kPa and 6.05e-05 ± 3e-06 kPa
323.13 K | 7.9e-05 ± 4e-06 kPa and 7.98e-05 ± 4e-06 kPa and 7.73e-05 ± 3.9e-06 kPa
325.21 K | 0.000102 ± 5e-06 kPa and 9.93e-05 ± 5e-06 kPa and 0.0001 ± 5e-06 kPa
327.12 K | 0.000128 ± 6e-06 kPa and 0.000126 ± 6e-06 kPa and 0.00013 ± 7e-06 kPa
329.16 K | 0.000162 ± 8e-06 kPa and 0.00016 ± 8e-06 kPa and 0.000159 ± 8e-06 kPa
331.2 K | 0.00021 ± 1.1e-05 kPa and 0.000202 ± 1e-05 kPa and 0.000204 ± 1e-05 kPa
333.12 K | 0.000259 ± 1.3e-05 kPa and 0.000261 ± 1.3e-05 kPa and 0.000258 ± 1.3e-05 kPa
335.15 K | 0.000328 ± 1.6e-05 kPa and 0.000322 ± 1.6e-05 kPa and 0.000323 ± 1.6e-05 kPa
336.13 K | 0.000366 ± 1.8e-05 kPa and 0.000371 ± 1.9e-05 kPa and 0.000368 ± 1.8e-05 kPa
337.2 K | 0.000425 ± 2.1e-05 kPa and 0.000414 ± 2.1e-05 kPa and 0.000409 ± 2e-05 kPa
338.15 K | 0.000461 ± 2.3e-05 kPa and 0.000462 ± 2.3e-05 kPa and 0.00046 ± 2.3e-05 kPa
339.2 K | 0.000535 ± 2.7e-05 kPa and 0.000522 ± 2.6e-05 kPa and 0.000515 ± 2.6e-05 kPa

Settings | molar enthalpy of transition or fusion [kcal/mol]
[2] | 26.03 ± 0.191
